Assay results reported in patent publication US6315907A (priority 1997, dated 2001).

Tested on: TSST-1
Assay type: binding, Staphylococcus aureus

CCCCCCCCN [n-octylamine]
adsorption ability for TSST-1: enhanced to a great extent
